Biological target: T1, mouse I7 receptor (mI7) (Mus musculus, UniProt Q9QWU6)
T1 sequence (Q9QWU6 1-327): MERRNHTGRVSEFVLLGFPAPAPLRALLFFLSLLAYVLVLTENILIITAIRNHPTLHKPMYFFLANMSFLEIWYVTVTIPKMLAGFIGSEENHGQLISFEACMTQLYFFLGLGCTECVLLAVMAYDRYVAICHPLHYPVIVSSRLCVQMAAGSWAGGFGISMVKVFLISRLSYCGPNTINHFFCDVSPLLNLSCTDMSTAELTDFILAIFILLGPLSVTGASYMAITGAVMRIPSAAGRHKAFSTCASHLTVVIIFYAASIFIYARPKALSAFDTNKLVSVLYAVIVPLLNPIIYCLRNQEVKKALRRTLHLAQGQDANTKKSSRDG

Structure (SMILES)	EC50 [µM]
CCCCCCC=O [7al, heptanal]	~6.3
CCCCCCCC=O [8al, octanal]	~63.1

Source: paper PMC2901914 (Neuron, 2010)
